For 18 molecules, melting point results are on record in US6479554B2, “Immunotherapeutic agents” (Celgene Corporation, priority 1996, dated 2002).

The melting point is the temperature, or range, at which the solid turns liquid. In turn, `COc1ccc(C(=O)c2c(OC)cccc2OC)cc1OC` [Example 30, 2′,6′,3,4-Tetramethoxybenzophenone] yielded a melting point of 128 to 129 °C.
On to `COc1ccc(C(=CC#N)c2cccc([N+](=O)[O-])c2)cc1OC` [Example 11, 3-(3,4-Dimethoxyphenyl)-3-(3′-nitrophenyl)acrylonitrile], for which the melting point fell in the range of 117.5 to 120 °C.
As for `CCc1ccc(C(=CC#N)c2ccc(OC)c(OC)c2)cc1CC` [Example 26, 3-(3,4-Diethylphenyl)-3-(3,4-dimethoxyphenyl)acrylonitrile], the melting point is 78 to 82 °C.
With `COc1ccc(C(=CC#N)c2ccc3ccccc3c2)cc1OC` [Example 20, 3-(3,4-Dimethoxyphenyl)-3-naphth-2-ylacrylonitrile] the figure was 121 to 123 °C; with `COc1ccc(C(=CC#N)c2ccc(C)cc2)cc1OC` [Example 17, 3-(3,4-Dimethoxyphenyl)-3-(4-methylphenyl)acrylonitrile], 83.5 to 86.5 °C; with `CC=C(c1ccccc1)c1ccc(OC)c(OC)c1` [Example 5, 1-(3,4-Dimethoxyphenyl)-1-phenylprop-1-ene], 72 to 73 °C.
The molecule `COc1ccc(C(=O)c2cccc(N)c2)cc1OC` [Example 13, 3,4-Dimethoxy-3′-aminobenzophenone] gave a melting point of 157 to 175 °C.
In turn, `COc1ccc(C(=CC#N)c2ccc(F)cc2)cc1OC` [Example 19, 3-(3,4-Dimethoxyphenyl)-3-(4′-fluorophenyl)acrylonitrile] displayed a melting point of 100 to 102 °C.
As for `COc1ccc(C(=CC#N)c2ccco2)cc1OC` [Example 24, 3-(3,4-Dimethoxyphenyl)-3-(2-furyl)acrylonitrile], the melting point fell in the range of 78 to 82 °C.
Regarding `COc1cc(OC)cc(C(=CC#N)c2ccc(OC)c(OC)c2)c1` [Example 10, 3-(3,4-Dimethoxyphenyl)-3-(3′,5′-dimethoxyphenyl)-acrylonitrile], the melting point was 88 to 90 °C.
Take `COc1ccc(C(=CC#N)c2ccc([N+](=O)[O-])cc2)cc1OC` [Example 14, 3-(3,4-Dimethoxyphenyl)-3-(4-nitrophenyl)acrylonitrile]: the melting point is 117.5 to 120 °C.
With `COc1ccc(C(=CC#N)c2ccccn2)cc1OC` [Example 23, 3-(3,4-Dimethoxyphenyl)-3-pyridin-2-ylacrylonitrile] the figure was 134.5 to 135.5 °C; with `COc1ccc(C(=CC#N)c2ccc(-c3ccccc3)cc2)cc1OC` [Example 18, 3-(4-Biphenylyl)-3-(3,4-dimethoxyphenyl)acrylonitrile], 132 to 134 °C.
Turning to `COc1ccc(C(=CC#N)c2ccc3c(c2)OCO3)cc1OC` [Example 21, 3-(3,4-Dimethoxyphenyl)-3-(3,4-methylenedioxyphenyl)acrylonitrile], the melting point lay within 121 to 123 °C.
With `COc1ccc(C(=O)c2ccc(N)cc2)cc1OC` [Example 16, 3,4-Dimethoxy-4′-aminobenzophenone] the figure was 189 to 191 °C; with `CCOc1cc(C(=CC#N)c2ccccc2)ccc1OC` [Example 8, 3-(3-Ethoxy-4-methoxyphenyl)-3-phenylacrylonitrile], 74 to 77 °C; with `COc1ccc(C(=CC#N)c2ccncc2)cc1OC` [Example 22, 3-(3,4-Dimethoxyphenyl)-3-pyridin-4-ylacrylonitrile], 116 to 125 °C.
With `CC=C(c1ccc(OC)c(OC)c1)c1ccc(OC)c(OCC)c1` [Example 6, 1-(3,4-Dimethoxyphenyl)-1-(3-ethoxy-4-methoxyphenyl)prop-1-ene] the figure was 65.5 to 68 °C.
